Test results from PubChem BioAssay AID624491 (Broad Institute, 2012).
Active and inactive are the calls of the source.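 How the source made its calls: active means fitted curve crossing a set activation limit at or below the highest valid dose tested; inconclusive means flat fit at 30 to 70% activation, or poor fit; inactive means the rest, including signal decreases.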

What follows are compounds tested on D54 ERlucT glycosylation luciferase reporter, luminescence, 24 h (assay: N-linked glycosylation inhibitors, luciferase reporter, dose response, D54 ERlucT cells, luminescence, cherry-picks (AID 624491);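 further: signal gain reflects blocked N-linked glycosylation of a luciferase reporter; actives raise luciferase signal so AC26 marks activators of the reporter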).

SMILES | AC26
C=C(C)Cc1c(C)c(C#N)c2nc3ccccc3n2c1NCCCN(C)C | 1080 nM
CC(C)CCN(C(=O)Cc1ccc(Cl)c(Cl)c1)c1c(N)n(Cc2ccccc2)c(=O)[nH]c1=O | 2080 nM
COc1ccc(CCn2c(Br)nc3c2c(=O)[nH]c(=O)n3C)cc1 | 1080 nM
CCN(CC)CCOc1ccc2c(c1)C(=NNC(=O)c1ccccn1)c1cc(OCCN(CC)CC)ccc1-2 | 530 nM
Cc1[nH]nc2c1C(c1cccc(O)c1)C1=C(CC(C)(C)CC1=O)N2 (stereo not drawn) | 1870 nM
COc1cc(-c2[nH]ncc2CN2CCSCC2)cc(OC)c1OC | 4790 nM
O=C(NCCCN1CCOCC1)c1cc(-c2cccs2)on1 | 3670 nM
Cc1cc(C)cc(C(=O)N2CC(=O)Nc3ccccc32)c1 | 265 nM
Cn1nc(C(F)(F)F)c(/C=N/OC(=O)c2ccccc2Cl)c1SCc1ccccc1Cl | 817 nM
CC[C@H](C)[C@H](NC(=O)c1ccc(Cl)cc1)C(=O)OCC(=O)c1ccc2c(c1)NC(=O)CO2 | 6470 nM
Cc1cc(Br)cc2c(C(=O)Nc3c(C)n(C)n(-c4ccccc4)c3=O)cc(-c3cccs3)nc12 | 3650 nM
COc1cccc(C2=NOC(C(=O)NCc3ccccc3)C2)c1 (stereo not drawn) | 73.2 nM
COc1ccccc1NS(=O)(=O)c1ccc(-c2cc(C)no2)s1 | 5830 nM
COc1ccc2nc3c(cc2c1)c(NC(=O)CC(C)C)nn3CC(C)C | 8100 nM
O=C(COC(=O)c1ccc(NS(=O)(=O)c2cccs2)cc1O)NCc1ccccc1 | 4820 nM
Nc1[nH]nc2nc(NCc3ccccc3)c3c(c12)CCN(Cc1ccccc1)C3 | 1030 nM
CCN(CC)CCN1C(=O)c2cccc3cc(N)cc(c23)C1=O | 1140 nM
COc1cc(C(=O)NC2CCN(C)CC2)ccc1Nc1ncc2c(n1)N(C1CCCCC1)CCC(=O)N2C | 11.3 nM
CN(Cc1ccccc1)c1nc2c(c(=O)[nH]c(=O)n2C)n1CCCc1ccccc1 | 2830 nM
COc1ccc(C2(CNC(=O)c3cc(OC)c(OC)c(OC)c3)CCCC2)cc1OC | 3140 nM
Cc1ccc(N2CCN(C3=NC(=O)/C(=C\c4cn[nH]c4-c4ccccc4)S3)CC2)cc1 | 1350 nM
Cc1ccc(C(c2cc(Cl)c3cccnc3c2O)N2CCN(C)CC2)cc1 (stereo not drawn) | 1280 nM
Nc1c(C(=O)Nc2ccc(S(=O)(=O)N3CCCC3)cc2)sc2nc3ccc(OC(F)(F)F)cc3cc12 | 1160 nM
O=c1[nH]c(=O)n([C@H]2C[C@H](O)[C@@H](CO)O2)cc1Br | 1690 nM
O=C1c2cccc3cccc(c23)C(=O)N1CC1CCN(CC(O)COCc2ccc3c(c2)OCO3)CC1 (stereo not drawn) | > 19500 nM (inactive)
CCn1c2ccccc2c2cc(NC(=O)COC(=O)C3CCC(=O)N3)ccc21 (stereo not drawn) | 3400 nM
COc1ccc(Nc2nc(N3CCCC3)nc3ccccc23)c(OC)c1 | 1950 nM

SMILES | AC26
CC1(C(=O)NCc2ccco2)Cc2c(-c3ccc(C(N)=O)cc3)ccnc2O1 (stereo not drawn) | 1390 nM
COc1cccc(-c2nn(-c3ccccc3)cc2/C=C\C(=O)c2cccs2)c1 | 1360 nM
CC1CCCCN1C(=O)NC12CC3CC(CC(C3)C1)C2 (stereo not drawn) | 4170 nM
Cc1ccc2c(CC(=O)NCc3ccco3)coc2c1C | 7380 nM
COc1ccc(Nc2nc(C)nc3sc4c(c23)CCC4)cc1O | 11400 nM
COc1ccc(CNC(=O)c2cccc3c(-c4cccc(C(N)=O)c4)coc23)cc1OC | 663 nM
CCc1nn2c(NCCCO)cc(C)nc2c1-c1ccc(F)cc1 | 1630 nM
CCOc1ccccc1NC(=O)CN(c1ccc(OC)cc1)S(=O)(=O)c1c(C)noc1C | 4150 nM
O=C(COc1ccc(C(=O)c2ccccc2)cc1)NCc1ccc(F)cc1 | 1870 nM
O=C(C[C@H]1C/C=C\C[C@H](Cc2ccc(F)cc2)C(=O)O[C@@H](c2ccccc2)CNC1=O)N[C@@H](CO)Cc1ccccc1 | 892 nM
Cc1cccc(N2C(=O)N3[C@H](c4ccc(F)cc4)[C@@H]4C(=O)N(C5CCCCC5)C(=O)[C@@H]4[C@]3(Cc3ccccc3)C2=O)c1 | 692 nM
CN(C)CCNc1ccc2nnn3c4ccc(O)cc4c(=O)c1c23 | 52 nM
NNC(=O)c1oc2nc(-c3ccco3)cc(-c3ccco3)c2c1N | 4260 nM
CN1CCN(C(c2ccc(Br)cc2)c2cc(Cl)c3cccnc3c2O)CC1 (stereo not drawn) | 1810 nM
Cc1ccc(OCCN2C(=O)C(=O)c3cc(C)ccc32)cc1 | 2460 nM
Cc1ccccc1OCCOC(=O)c1c(-c2ccccc2)noc1C | 8510 nM
CCN(CC)CCNc1ccc(CO)c2oc3cc(Cl)ccc3c(=O)c12 | 2820 nM
Cc1nc(SCC(=O)Nc2ccc(F)cc2)c(C#N)c(C)c1CC(=O)c1ccc(Br)cc1 | 1660 nM
O=S(=O)([N-]c1nc2ccccc2nc1-n1cc[n+](Cc2ccccc2)c1)c1ccc(Cl)cc1 | 101 nM
Nc1nc(=S)c2ncn([C@@H]3O[C@H](CO)[C@@H](O)[C@H]3O)c2[nH]1 | 368 nM
Cc1ccc(C(=O)c2coc3c2C(=O)C(=O)c2ccccc2-3)cc1 | 4630 nM
CCN1C(=O)c2cccc3c(S(=O)(=O)Nc4ccccn4)ccc1c23 | 2870 nM
COC(=O)c1cn(C(=O)c2ccc(OC)cc2)c2ccccc12 | 730 nM
CCOc1ccccc1C(=O)Nc1ccsc1C(=O)OC | 1300 nM
Cn1c(-c2ccccc2)c(/C=N/NC(=O)c2ccc(O)cc2)c2ccccc21 | 647 nM
CN(C)S(=O)(=O)c1ccc(N2CCCC2)c(C(=O)Nc2nc3ccc(F)cc3s2)c1 | 1540 nM
